Data from PMC9873307, “Methylone, a rapid acting entactogen with robust anxiolytic and antidepressant-like activity” (Frontiers in Psychiatry, 2023).
Read-outs that look alike come from different tables or passages of the source.

Legend:
[1] = cited from earlier work; for reduced immobility in the FST: FST literature
male Sprague Dawley rats [2] = experiment: Open field test (OFT): locomotor activity and time in center; type: in vivo, rat
Description: (§1) Male Sprague Dawley rats (Charles River Laboratories) weighing 180–200 g on arrival, were used for all behavioral studies, which took place at Melior Discovery (Exton, PA, USA). Rats acclimated to their home cages for at least 1 week before testing, were maintained in a controlled environment on a 12 h light/dark cycle, with no more than 2 rats per cage. Animals received ad libitum access to standard rodent chow and water and were assigned randomly to treatment groups. All animal use and procedures were in accordance with established protocols approved by the Melior IACUC committee, Melior Standard Operation Procedures (SOP), and Transcend Therapeutics. Distinct cohorts of animals were used for each experiment/Figure presented in this manuscript.
(§2) Methylone HCl (0.5–30 mg/kg; Cayman Chemical) or Fluoxetine HCl (10 mg/kg; Sigma-Aldrich) were formulated in sterile 0.9% saline vehicle before IP administration. Control animals received saline vehicle. Methylone or saline was administered 30 min prior to FST or OFT testing sessions. Fluoxetine or saline were administered 23.5, 5, and 1 h prior to testing, consistent with previous studies ([19]).
All studies were performed by an experimenter blind to treatment group and according to standard protocols at Melior Discovery (Exton, PA, USA). The OFT was used to assess both locomotor activity and anxiety-like behavior. The OFT was run in a standard rat OFA chamber (17 ^^′′ × 17 ^^′′ × 12 ^^′′ , Med Associates). After habituation to the testing room and drug injection, rats were assessed for 30 min in the OFT using an automated activity monitoring system (MedAssociates). Locomotor activity was measured by recording the total ambulatory distance traveled (cm), reported in 5-min bins for the duration of the 30 min testing period. The center of the open field was defined as a 12 ^^′′ square, a predefined center setting on the MedAssociates analysis software. Time spent in the center of the open field, an anxiolytic measure, was also recorded for the 30 min testing period.

male Sprague Dawley rats [3] = experiment: Forced swim test (FST); type: in vivo, rat; conditions: for swimming vs vehicle: Figure 3G
Description: as §1, §2
All studies were performed and scored by an experimenter blind to treatment group according to standard protocols at Melior Discovery (Exton, PA, USA) and based on published “modified FST” procedures ([20]). Briefly, rats were placed in a circular plexiglass container (29.2 cm diameter, 49.5 cm height) filled with water to a depth of 30 cm so rats could not support themselves by touching the bottom of the tank. Water was maintained at 22–25°C and was changed for every animal. Day 1 (Training) consisted of a 15 min acclimation trial, and Day 2 (Testing, 24 h later) consisted of the 5 min test. A time sampling procedure was employed where animals were observed every 5 s for the duration of the test session (60 counts or 5 min) and scored for immobility (defined as the failure to struggle), swimming (defined as a circular movement around the tank), or climbing (defined as an upward escape behavior). Data are expressed as the percent time spent immobile, swimming, or climbing for the 5-min testing session (e.g., the number of immobility counts divided by 60). Therefore, to extrapolate these values to time spent immobile in minutes, one can multiply the percent time immobile by 5 min.

[4] = design: method as in PMID 10080230; conditions: cited from earlier work

CNCCC(Oc1ccc(C(F)(F)F)cc1)c1ccccc1 (stereo not shown) [fluoxetine, reference compound]
reduced immobility in the FST [1]: 56%
distance traveled, first 5 min (male Sprague Dawley rats [2]; fluoxetine 10 mg/kg IP x3, 1 h post-dose, Figure 4B): reduced distance traveled
distance traveled over 30-min session, 5-min bins (male Sprague Dawley rats [2]; fluoxetine 10 mg/kg IP x3, Figure 4E): reduced distance traveled in the OFT for the first 15 min
time spent in the center (male Sprague Dawley rats [2]; fluoxetine 10 mg/kg IP x3, Figure 5B): significantly reduced time spent in the center
climbing behavior vs controls (male Sprague Dawley rats [3]; fluoxetine 10 mg/kg IP x3, Figure 1E): unaffected
swimming behavior vs controls (male Sprague Dawley rats [3]; fluoxetine 10 mg/kg IP x3, Figure 1G): significantly increased
climbing vs vehicle on retest (male Sprague Dawley rats [3]; fluoxetine 10 mg/kg IP x3, 1 h, 24, 72 h, Figure 3E): no effect on climbing
swimming vs vehicle (male Sprague Dawley rats [3]; fluoxetine 10 mg/kg IP x3, 1 h post-dose): significantly increased swimming
swimming vs vehicle (male Sprague Dawley rats [3]; fluoxetine 10 mg/kg IP x3, 24 h post-dose): small but significant increase in swimming
immobility vs vehicle on retest (male Sprague Dawley rats [3]; fluoxetine 10 mg/kg IP x3, tested 1 h, retested 24 and 72 h later, Figure 3C): only showed a significant effect on immobility 1 h post-dose
reduction/change in immobility vs vehicle control (male Sprague Dawley rats [3]; fluoxetine 10 mg/kg IP, three doses 23.5, 5, 1 h before testing): 50%
swimming compared to vehicle (male Sprague Dawley rats [3]; fluoxetine 10 mg/kg x3 alone or with methylone 5 mg/kg, Figure 6D): significantly increased swimming
duration of reduction in immobility (male Sprague Dawley rats [3]; fluoxetine 10 mg/kg, three doses within 24 h before testing): less than 24 h

CNC1(c2ccccc2Cl)CCCCC1=O (stereo not shown) [ketamine]
reduced immobility in the FST [1]: 25–62%

CN(C)CCc1c[nH]c2cccc(OP(=O)(O)O)c12 [psilocybin]
reduced immobility in the FST [1]: 67%

CNC(C)Cc1ccc2c(c1)OCO2 (stereo not shown) [MDMA, 3,4-methylenedioxymethamphetamine]
reduced immobility in the FST [1]: 47–78%
reduction of immobility compared to vehicle controls ([1]; FST): 47–78%
effect on anxiety ([4]; clinically relevant doses): no effect
effect on anxiety ([4]; higher doses): anxiogenic

Fc1ccc([C@@H]2CCNC[C@H]2COc2ccc3c(c2)OCO3)cc1 [paroxetine]
reduced immobility in the FST [1]: 40%

CN[C@H]1CC[C@@H](c2ccc(Cl)c(Cl)c2)c2ccccc21 [sertraline]
reduced immobility in the FST [1]: 50–68%

CNCCCN1c2ccccc2CCc2ccccc21 [desipramine]
reduced immobility in the FST [1]: 55–75%
